{"source": "paper PMC6120238", "about": "“Crystal structure of the retroviral protease‐like domain of a protozoal DNA damage‐inducible 1 protein” (FEBS Open Bio, 2018)", "key": {"LmDdi1_1–390 (LmDdi1) [1]": {"biological_target": "T1, LmDdi1_1–390 (LmDdi1) (Leishmania major, UniProt I7HUG0)", "T1 construct": "gene DDI1; full-length residues 1-390 (UBL, RVP and UBA domains), synthetic gene 1170 bp, N-terminal His6 tag (pET-28a, NdeI/HindIII), E. coli BL21; Ni-NTA and gel filtration; immobilised by the tag on Ni-NTA sensor; RVP domain homodimer in crystal; PDB 5YS4 from this construct, 5YQ8 from construct 184-390", "T1 sequence (I7HUG0 1-390)": "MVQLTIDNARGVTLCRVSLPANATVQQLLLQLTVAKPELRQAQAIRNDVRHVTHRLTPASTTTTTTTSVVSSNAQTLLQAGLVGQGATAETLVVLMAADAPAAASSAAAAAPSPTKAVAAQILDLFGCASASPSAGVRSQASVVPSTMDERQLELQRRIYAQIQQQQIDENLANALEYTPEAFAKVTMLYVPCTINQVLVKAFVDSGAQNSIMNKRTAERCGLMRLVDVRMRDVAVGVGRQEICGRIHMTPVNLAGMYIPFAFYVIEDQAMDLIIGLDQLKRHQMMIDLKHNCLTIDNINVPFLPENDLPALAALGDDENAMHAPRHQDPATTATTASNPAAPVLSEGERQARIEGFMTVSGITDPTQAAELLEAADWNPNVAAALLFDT", "assay": "bio-layer interferometry, protein on Ni-NTA sensor, […] Langmuir global fit", "format": "binding"}, "LmDdi1_1–390 (LmDdi1) [2]": {"biological_target": "T1, LmDdi1_1–390 (LmDdi1)", "assay": "bio-layer interferometry, protein on Ni-NTA sensor, […] Langmuir global fit", "format": "binding", "conditions": "20 mM MES pH 6.0, 200 mM NaCl, 1% DMSO; inhibitor 75-600 μM; weak signal, affinity could not be quantified"}}, "data": [{"smiles": "CC(C)(C)NC(=O)[C@@H]1C[C@@H]2CCCC[C@@H]2CN1C[C@@H](O)[C@H](Cc1ccccc1)NC(=O)[C@H](CC(N)=O)NC(=O)c1ccc2ccccc2n1", "note": "[saquinavir]", "values": [{"measurement": "Kd", "setting": "LmDdi1_1–390 (LmDdi1) [1]", "result": "314 ± 12.8", "unit": "µM"}]}, {"smiles": "Cc1c(O)cccc1C(=O)N[C@@H](CSc1ccccc1)[C@H](O)CN1C[C@H]2CCCC[C@H]2C[C@H]1C(=O)NC(C)(C)C", "note": "[nelfinavir]", "values": [{"measurement": "bio-layer interferometry, protein on Ni-NTA sensor, 1:1 Langmuir global fit", "setting": "LmDdi1_1–390 (LmDdi1) [2]", "result": "Nelfinavir showed much less binding, and the binding affinity could not be quantified"}]}]}
